Assay results from ChEMBL document CHEMBL4049416, “Synthesis and anti-cancer activities of new sulfonamides 4-substituted-triazolyl nucleosides” (Bioorg Med Chem Lett, 2017).
Activity calls are given as the source filed them. The rule behind the calls is not given here.

Legend:
MDA-MB-231 [1] = assay: Anticancer activity against human MDA-MB-231 cells after 48 hrs by XTT assay; type: functional, cell-based; conditions: MDA-MB-231, 48 h
RCC4 [2] = assay: Anticancer activity against human RCC4 cells after 48 hrs by XTT assay; type: functional, cell-based; conditions: RCC4, 48 h
[3] = Micelle aggregation by the compound
[4] = Solubility of the compound; type: physicochemical
RCC4 [5] = assay: Induction of autophagy in human RCC4 cells assessed as increase in LC3 conversion at 1 mM after 48 hrs by Western blot method; type: functional, cell-based
RCC4 [6] = assay: Induction of autophagy in human RCC4 cells assessed as increase in LC3 cleavage at 20 uM after 48 hrs by Western blot method; type: functional, cell-based
MDA-MB-231 [7] = assay: Potency index, ratio of AICAR IC50 to compound IC50 for human MDA-MB-231 cells; type: functional
MDA-MB-231 [8] = assay: Anticancer activity against human MDA-MB-231 cells at 50 uM after 48 hrs by XTT assay; type: functional, cell-based
RCC4 [9] = assay: Induction of apoptosis in human RCC4 cells assessed as PARP cleavage at 20 uM after 48 hrs by Western blot method; type: functional, cell-based
RCC4 [10] = assay: Induction of autophagy in human RCC4 cells assessed as increase in LC3 lipidation at 20 uM after 48 hrs by Western blot method; type: functional, cell-based
[11] = Potency index, ratio of AICAR IC50 to compound IC50 for human RCC4 cells; type: functional
RCC4 [12] = assay: Anticancer activity against human RCC4 cells at 50 uM after 48 hrs by XTT assay; type: functional, cell-based

Compound | IC50 (MDA-MB-231 [1]) [µM] | IC50 (RCC4 [2]) [µM] | also measured
CCS(=O)(=O)N(Cc1cn([C@@H]2O[C@H](COC(C)=O)[C@@H](OC(C)=O)[C@H](OC(C)=O)[C@H]2OC(C)=O)nn1)c1ccc(Cl)cc1 | > 250 | > 250 | 
CCCCN(Cc1cn([C@@H]2O[C@H](COC(C)=O)[C@@H](OC(C)=O)[C@H]2OC(C)=O)nn1)S(C)(=O)=O | 225 | 250 | Activity [3]: inactive; solubility [4]: Soluble
CCCCCCN(Cc1cn([C@@H]2O[C@H](COC(C)=O)[C@@H](OC(C)=O)[C@H]2OC(C)=O)nn1)S(C)(=O)=O | 225 | 140 | Activity [3]: inactive; solubility [4]: Soluble
CS(=O)(=O)N(Cc1cn([C@H]2O[C@H](CO)[C@@H](O[C@@H]3O[C@H](CO)[C@H](O)[C@H](O)[C@H]3O)[C@H](O)[C@H]2O)nn1)c1ccc(C#N)cc1 | 250 | 120 | 
NC(=O)c1ncn([C@@H]2O[C@H](CO)[C@@H](O)[C@H]2O)c1N [ACADESINE] | 1000 | 250 | Activity (RCC4 [5]): Active
CC(=O)OC[C@H]1O[C@@H](n2cc(CN(c3ccccc3)S(C)(=O)=O)nn2)[C@H](OC(C)=O)[C@@H]1OC(C)=O | 250 | 180 | 
COC(=O)CN(Cc1cn([C@@H]2O[C@H](COC(C)=O)[C@@H](OC(C)=O)[C@H](OC(C)=O)[C@H]2OC(C)=O)nn1)S(C)(=O)=O | > 250 | > 250 | 
COC(=O)CN(Cc1cn([C@@H]2O[C@H](COC(C)=O)[C@@H](OC(C)=O)[C@H]2OC(C)=O)nn1)S(C)(=O)=O | 250 | 125 | 
COC(=O)C(C)(C)N(Cc1cn([C@@H]2O[C@H](COC(C)=O)[C@@H](OC(C)=O)[C@H](OC(C)=O)[C@H]2OC(C)=O)nn1)S(C)(=O)=O | 225 | 240 | 
COC(=O)C(C)(C)N(Cc1cn([C@@H]2O[C@H](COC(C)=O)[C@@H](OC(C)=O)[C@H]2OC(C)=O)nn1)S(C)(=O)=O | 240 | 50 | 
CS(=O)(=O)N(Cc1cn([C@@H]2O[C@H](CO)[C@@H](O)[C@H]2O)nn1)c1ccc(C#N)cc1 | > 250 | 250 | 
CC(=O)OC[C@H]1O[C@@H](n2cc(CN(c3ccc(Cl)cc3)S(=O)(=O)c3ccccc3)nn2)[C@H](OC(C)=O)[C@@H]1OC(C)=O | 250 | 250 | 
CC(=O)OC[C@H]1O[C@@H](n2cc(CN(c3ccc(C#N)cc3)S(C)(=O)=O)nn2)[C@H](OC(C)=O)[C@@H](OC(C)=O)[C@@H]1O[C@H]1O[C@H](COC(C)=O)[C@@H](OC(C)=O)[C@H](OC(C)=O)[C@H]1OC(C)=O | 230 | 230 | 
CC(=O)OC[C@H]1O[C@@H](n2cc(CN(c3ccc(C#N)cc3)S(C)(=O)=O)nn2)[C@@H](OC(C)=O)[C@@H](OC(C)=O)[C@@H]1OC(C)=O | 230 | 240 | 
CCS(=O)(=O)N(Cc1cn([C@@H]2O[C@H](COC(C)=O)[C@@H](OC(C)=O)[C@H]2OC(C)=O)nn1)c1ccc(Cl)cc1 | 250 | 250 | 
CS(=O)(=O)N(Cc1cn([C@@H]2O[C@H](CO)[C@@H](O[C@H]3O[C@H](CO)[C@@H](O)[C@H](O)[C@H]3O)[C@H](O)[C@H]2O)nn1)c1ccc(C#N)cc1 | 250 | 250 | 

Continued, in another order:

IC50 (MDA-MB-231 [1]) [µM] | Compound | IC50 (RCC4 [2]) [µM] | also measured
220 | COc1cccc(N(Cc2cn([C@@H]3O[C@H](COC(C)=O)[C@@H](OC(C)=O)[C@H](OC(C)=O)[C@H]3OC(C)=O)nn2)S(C)(=O)=O)c1 | 200 | 
6 | CCN(CC)CCNC(=O)c1c(C)[nH]c(/C=C2\C(=O)Nc3ccc(F)cc32)c1C [SUNITINIB] | 4 | 
100 | CC(=O)OC[C@H]1O[C@@H](n2cc(CN(c3ccc(C#N)cc3)S(C)(=O)=O)nn2)[C@H](OC(C)=O)[C@@H](OC(C)=O)[C@H]1OC(C)=O | 170 | 
150 | CCS(=O)(=O)N(Cc1cn([C@H]2O[C@H](COC(C)=O)[C@@H](O[C@@H]3O[C@H](COC(C)=O)[C@H](OC(C)=O)[C@H](OC(C)=O)[C@H]3OC(C)=O)[C@H](OC(C)=O)[C@H]2OC(C)=O)nn1)c1ccc(Cl)cc1 | 160 | 
185 | CS(=O)(=O)N(Cc1cn([C@@H]2O[C@H](CO)[C@@H](O)[C@H](O)[C@H]2O)nn1)c1ccc(C#N)cc1 | 200 | 
135 | CC(=O)OC[C@H]1O[C@@H](n2cc(CN(c3ccc(Cl)cc3)S(=O)(=O)c3ccccc3)nn2)[C@H](OC(C)=O)[C@@H](OC(C)=O)[C@@H]1OC(C)=O | 115 | 
180 | CC(=O)OC[C@H]1O[C@@H](n2cc(CN(c3ccc(C)cc3)S(=O)(=O)c3ccccc3)nn2)[C@H](OC(C)=O)[C@@H](OC(C)=O)[C@@H]1OC(C)=O | 130 | 
160 | COc1cccc(N(Cc2cn([C@@H]3O[C@H](COC(C)=O)[C@@H](OC(C)=O)[C@H]3OC(C)=O)nn2)S(C)(=O)=O)c1 | 190 | 
100 | CC(=O)OC[C@H]1O[C@@H](n2cc(CN(c3ccccc3)S(=O)(=O)c3ccccc3)nn2)[C@H](OC(C)=O)[C@@H]1OC(C)=O | 150 | 
155 | CCS(=O)(=O)N(Cc1cn([C@@H]2O[C@H](COC(C)=O)[C@@H](OC(C)=O)[C@H](OC(C)=O)[C@H]2OC(C)=O)nn1)c1ccccc1 | 175 | 
215 | CCS(=O)(=O)N(Cc1cn([C@H]2O[C@H](CO)[C@@H](O[C@@H]3O[C@H](CO)[C@H](O)[C@H](O)[C@H]3O)[C@H](O)[C@H]2O)nn1)c1ccc(Cl)cc1 | 200 | 
15 | CCCCCCCCCCCCCCCCN(Cc1cn([C@@H]2O[C@H](COC(C)=O)[C@@H](OC(C)=O)[C@H]2OC(C)=O)nn1)S(C)(=O)=O | 13 | Activity (RCC4 [6]): Active; Activity [3]: inactive; Ratio IC50 (MDA-MB-231 [7]): 66; solubility [4]: Soluble; Activity (MDA-MB-231 [8]): Active; Activity (RCC4 [9]): Active; Activity (RCC4 [10]): Active; Ratio IC50 [11]: 19; Activity (RCC4 [12]): Active
100 | CC(=O)OC[C@H]1O[C@@H](n2cc(CN(c3ccc(C#N)cc3)S(C)(=O)=O)nn2)[C@H](OC(C)=O)[C@@H]1OC(C)=O | 235 | 
205 | CC(=O)OC[C@H]1O[C@@H](n2cc(CN(c3ccc(C)cc3)S(=O)(=O)c3ccccc3)nn2)[C@H](OC(C)=O)[C@@H]1OC(C)=O | 230 | 
215 | CC(=O)OC[C@H]1O[C@@H](n2cc(CN(c3ccc(C#N)cc3)S(C)(=O)=O)nn2)[C@H](OC(C)=O)[C@@H](OC(C)=O)[C@@H]1OC(C)=O | 120 | 
70 | CC(=O)OC[C@H]1O[C@@H](O[C@H]2[C@H](OC(C)=O)[C@@H](OC(C)=O)[C@@H](n3cc(CN(c4ccc(C#N)cc4)S(C)(=O)=O)nn3)O[C@@H]2COC(C)=O)[C@H](OC(C)=O)[C@@H](OC(C)=O)[C@H]1OC(C)=O | 50 | 
31 | CCCCCCCCCCCCCCN(Cc1cn([C@@H]2O[C@H](COC(C)=O)[C@@H](OC(C)=O)[C@H]2OC(C)=O)nn1)S(C)(=O)=O | 29 | Activity [3]: inactive; solubility [4]: Soluble
